{"source": "patent US12011475B2", "about": "“Polypeptide, polypeptide fragment, derivative thereof, and applications thereof” (CHENGDU HUITAI BIOMEDICINE CO., LTD., priority 2017, dated 2024)", "format_in_all_cases": "in vivo", "key": {"[1]": {"test_system": "rat with pulmonary fibrosis induced by bleomycin", "test": "HE staining score, intravenous injection (Example 23)", "details": "inflammatory pathology score, grade 0 to 3; intravenous injection 10 mg/kg once a day, 4th to 13th day after bleomycin 4 mg/kg; Mean ± SEM", "excerpt": "(§1) The lung tissue of the rats of Example 2 was taken, fixed with 4% paraformaldehyde and embedded in paraffin. The wax block embedded the lung tissue was sectioned along the largest cross section. Pathological changes in lung tissue were observed using hematoxylin-eosin (HE) staining. Pathological changes in lung tissue were observed under a light microscope (low magnification) at a magnification of 100 times (the result is shown in FIG. 2).\nAccording to the method provided by Szapie, et al., the degree of alveolitis was graded according to the range of lesions and could be divided into 0 to 3 grades, corresponding to 0 to 3 points. The evaluation indexes for the degree of alveolitis are as follows: grade 0, no alveolitis; grade 1, mild alveolitis, manifested as a slight increase in alveolar septum, infiltration of monocytes, near the pleura or localized, with a lesion range of less than 20% without alveolar structural damage; grade 2, moderate alveolitis, the lesion ranges from 20% to 50%, relatively severe near the pleura; grade 3, severe alveolitis, diffusely distributed, the lesion range is more than 50%, with pulmonary parenchymal lesion occasionally.\nThe rats were weighed before administration, intramuscularly injected with 65 mg/kg Zoletil anesthetic solution. After the rats entered the stage III anesthesia, the experimental rats were fixated in the lateral decubitus. […]"}, "[2]": {"test_system": "rat with pulmonary fibrosis induced by bleomycin", "test": "Lung coefficient, intravenous injection (Example 22)", "details": "lung mass (mg)/body weight (g); intravenous injection 10 mg/kg once a day, 4th to 13th day after bleomycin 4 mg/kg; Mean ± SEM", "method": "The rats in Example 2 were weighed and sacrificed by anesthesia overdose. Lung tissue of both sides of the rats was taken, and the connective tissue around the lung tissue was carefully removed. After washing with saline and dried with a filter paper, the wet weight of the whole lung was weighted by an electronic balance. After the wet weight of the whole lung was weighted by the electronic balance, the lung coefficient was calculated according to the formula, lung coefficient=lung mass (mg)/body weight (g) (the result is shown in FIG. 1).\n(§2) The rats were weighed before administration, intramuscularly injected with 65 mg/kg Zoletil anesthetic solution. After the rats entered the stage III anesthesia, the experimental rats were fixated in the lateral decubitus. Gavage needle size 12 was inserted into rat trachea through oral cavity along the glottis to instill sterile saline or bleomycin (4 mg/kg) (Day 0). After the anesthesia, the rats in control group were intratracheally instilled with an equal volume of sterile saline, and the rats in model group and treatment groups were intratracheally instilled with bleomycin (4 mg/kg). […]\nThe experimental rats of the control group, the model group and the treatment groups of Example 20 were taken, the lung weight was measured and the lung coefficient was calculated. […]"}, "[3]": {"test_system": "rat with pulmonary fibrosis induced by bleomycin", "test": "Masson staining score, intravenous injection (Example 24)", "details": "fibrosis pathology score, grade 0 to 8; intravenous injection 10 mg/kg once a day, 4th to 13th day after bleomycin 4 mg/kg; Mean ± SEM", "excerpt": "as §1, with “9” for “2”, “staining by Masson's trichrome stain (Masson).” for “hematoxylin-eosin (HE) staining.”, “15).” for “2).”\n(§3) According to the Modified Ashcroft scale scoring method, the degree of pulmonary fibrosis was evaluated according to the range of lesions and could be divided into 0 to 8 grades.\nas §2, with “mg/kg). On the 4th day, the sterile saline or peptide drug was injected through the tail vein once a day until the 13th day.” for “mg/kg).”"}, "[4]": {"test_system": "rat with pulmonary fibrosis induced by bleomycin", "test": "Masson staining score, intratracheal instillation (Example 19)", "details": "fibrosis pathology score, grade 0 to 8, 8 mg/kg peptide + 4 mg/kg bleomycin, Mean ± SEM", "excerpt": "as §1, with “9” for “2”, “staining by Masson's trichrome stain (Masson).” for “hematoxylin-eosin (HE) staining.”, “15).” for “2).”\nas §3\n(§4) The rats in model group were intratracheally instilled with bleomycin (4 mg/kg); after anesthesia, the rats in treatment groups were intratracheally instilled with bleomycin (4 mg/kg) and corresponding therapeutic drug (8 mg/kg) simultaneously. The remaining implementation steps were the same as the description of Example 9.\nThe lung tissue of the control group, the model group and the treatment groups of Example 15 was taken and subjected to Masson staining and scoring. The specific implementation steps were the same as the description of Example 13."}, "[5]": {"test_system": "rat with pulmonary fibrosis induced by bleomycin", "test": "Rat weight, intratracheal instillation (Examples 15-16)", "details": "Day 14/Day 0, 8 mg/kg peptide + 4 mg/kg bleomycin simultaneously, Mean ± SEM", "method": "The rats were weighed before administration, intramuscular injection of Zoletil anesthetic solution, the dose was 65 mg/kg. After the rats entered the stage III anesthesia, the experimental rats were bond in the incline lateral decubitus. A size 12 gavage needle was inserted into rat trachea through oral cavity along the glottis to infuse the drug. The experimental animals were fed normally from the 1st day to the 14th day after intratracheal administration, and were weighed regularly every day without restriction of feed or drinking water.\nas §4\nThe model and the administration route were referred to Example 15. The experimental rats in the control group, the model group, and the treatment groups described in Example 15 were weighted every day from the 1st day until the 14th day. When weighing, the “unstable weighing” of the electronic balance was selected, and an appropriate number of weighing and a degree of tolerable instability during the reading phase were set according to the instructions to weigh and record the readings. […]"}, "[6]": {"test_system": "rat with pulmonary fibrosis induced by bleomycin", "test": "Rat body weight, intravenous injection (Examples 20-21)", "details": "Day 14/Day 0; intravenous injection 10 mg/kg once a day, 4th to 13th day after bleomycin 4 mg/kg; Mean ± SEM", "excerpt": "The model and the administration route were referred to Example 15. The experimental rats in the control group, the model group, and the treatment groups described in Example 15 were weighted every day from the 1st day until the 14th day. When weighing, the “unstable weighing” of the electronic balance was selected, and an appropriate number of weighing and a degree of tolerable instability during the reading phase were set according to the instructions to weigh and record the readings. The result is shown in the weight ratios in FIG. 2 (Day 14/Day 0).\nas §2, with “mg/kg). On the 4th day, the sterile saline or peptide drug was injected through the tail vein once a day until the 13th day. The rats were sacrificed on the 14th day for subsequent experiments.” for “mg/kg).”"}}, "note": "Ends that are not written are not given here.", "data": [{"sequence": "YRVRFLAKENVTQDAEDN [N1]", "values": [{"measurement": "HE Score", "setting": "[1]", "value": "2.44 ± 0.24"}, {"measurement": "Lung Coefficient", "setting": "[2]", "value": "9.25 ± 0.28"}, {"measurement": "Masson Score", "setting": "[3]", "value": "3.85 ± 0.11"}, {"measurement": "Masson Score", "setting": "[4]", "value": "3.93 ± 0.09"}, {"measurement": "Weight Ratio", "setting": "[5]", "value": "1.05 ± 0.02"}, {"measurement": "Weight Ratio", "setting": "[6]", "value": "1.05 ± 0.02"}]}]}
